Drawing on patent publication US9416127B2, “Triazole carboxamides and uses thereof” (Hoffmann-La Roche Inc., priority 2012, dated 2016), this text covers Ki and Kd for 13 compounds.

Experiment [1] concerns the target rat TAAR1 (Rattus norvegicus (Rat), UniProt Q923Y9). The experiment is described as follows: Radioligand binding assay on rat TAAR1. To be noted: for Ki: rat TAAR1, HEK-293 membranes, second value of mouse/rat cell. Here is the method:
(§1) Construction of TAAR Expression Plasmids and Stably Transfected Cell Lines
(§2) For the construction of expression plasmids the coding sequences of human, rat and mouse TAAR 1 were amplified from genomic DNA essentially as described by Lindemann et al.. The Expand High Fidelity PCR System (Roche Diagnostics) was used with 1.5 mM Mg^2+ and purified PCR products were cloned into pCR2.1-TOPO cloning vector (Invitrogen) following the instructions of the manufacturer. PCR products were subcloned into the pIRESneo2 vector (BD Clontech, Palo Alto, Calif.), and expression vectors were sequence verified before introduction in cell lines.
(§3) HEK293 cells (ATCC # CRL-1573) were cultured essentially as described by Lindemann et al. (2005). For the generation of stably transfected cell lines HEK293 cells were transfected with the pIRESneo2 expression plasmids containing the TAAR coding sequences (described above) with Lipofectamine 2000 (Invitrogen) according to the instructions of the manufacturer, and 24 hrs post transfection the culture medium was supplemented with 1 mg/ml G418 (Sigma, Buchs, Switzerland). After a culture period of about 10 d clones were isolated, expanded and tested for responsiveness to trace amines (all compounds purchased from Sigma) with the cAMP Biotrak Enzyme immunoassay (EIA) System (Amersham) following the non-acetylation EIA procedure provided by the manufacturer.
Radioligand Binding Assay on Rat TAAR1
(§4) Membrane Preparation and Radioligand Binding.
(§5) HEK-293 cells stably expressing rat TAAR1 were maintained at 37° C. and 5% CO2 in DMEM high glucose medium, containing fetal calf serum (10%, heat inactivated for 30 min at 56° C.), penicillin/streptomycin (1%), and 375 μg/ml geneticin (Gibco). Cells were released from culture flasks using trypsin/EDTA, harvested, washed twice with ice-cold PBS (without Ca^2+ and Mg^2+), pelleted at 1'000 rpm for 5 min at 4° C., frozen and stored at −80° C. Frozen pellets were suspended in 20 ml HEPES-NaOH (20 mM, pH 7.4) containing 10 mM EDTA and homogenized with a Polytron (PT 6000, Kinematica) at 14'000 rpm for 20 s. The homogenate was centrifuged at 48'000×g for 30 min at 4° C. Subsequently, the supernatant was removed and discarded, and the pellet resuspended in 20 ml HEPES-NaOH (20 mM, pH 7.4) containing 0.1 mM EDTA using the Polytron (20 s at 14'000 rpm). This procedure was repeated and the final pellet resuspended in HEPES-NaOH containing 0.1 mM EDTA and homogenized using the Polytron. Typically, aliquots of 2 ml membrane portions were stored at −80° C. With each new membrane batch the dissociation constant (Kd) was determined via a saturation curve. […] Nonspecific binding was defined as the amount of ^3[H]—(S)-4-[(ethyl-phenyl-amino)-methyl]-4,5-dihydro-oxazol-2-ylamine bound in the presence of 10 μM unlabeled ligand. All compounds were tested at a broad range of concentrations (10 μM to 10 μM) in duplicates. […] The 96 deep well plates were incubated for 1 hr at 4° C. Incubations were terminated by rapid filtration through Unifilter-96 plates (Packard Instrument Company) and glass filters GF/C (Perkin Elmer) presoaked for 1 hr in polyethylenimine (0.3%) and washed 3 times with 1 ml of cold binding buffer. After addition of 45 μl of Microscint 40 (PerkinElmer) the Unifilter-96 plate was sealed and after 1 hr the ratioactivity counted using a TopCount Microplate Scintillation Counter (Packard Instrument Company).

For experiment [2], the target named is mouse TAAR1 (Mus musculus (Mouse), UniProt Q923Y8). The experiment is described as follows: Radioligand binding assay on mouse TAAR1. The settings on record: for Ki: mouse TAAR1, HEK-293 membranes, first value of mouse/rat cell. Here is the method: as §1, §2, §3
Chain of mouse TAAR1 (Q923Y8 whole entry): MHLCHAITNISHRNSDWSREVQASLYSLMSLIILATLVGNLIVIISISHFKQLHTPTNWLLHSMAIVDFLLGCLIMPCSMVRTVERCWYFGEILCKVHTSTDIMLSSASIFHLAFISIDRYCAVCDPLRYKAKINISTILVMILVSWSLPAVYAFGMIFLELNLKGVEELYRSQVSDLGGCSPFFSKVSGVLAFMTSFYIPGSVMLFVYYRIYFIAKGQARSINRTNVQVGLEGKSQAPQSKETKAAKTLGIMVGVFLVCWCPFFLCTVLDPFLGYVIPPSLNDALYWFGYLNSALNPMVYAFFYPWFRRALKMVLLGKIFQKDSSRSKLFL
Radioligand Binding Assay on Mouse TAAR1
as §4
as §5, with “expressing mouse” for “expressing rat”, “(10 pM” for “(10 μM”

SMILES strings stand for the structures. Structures can show the parent of a compound that is named as a salt.

Chain of rat TAAR1 (Q923Y9 whole entry): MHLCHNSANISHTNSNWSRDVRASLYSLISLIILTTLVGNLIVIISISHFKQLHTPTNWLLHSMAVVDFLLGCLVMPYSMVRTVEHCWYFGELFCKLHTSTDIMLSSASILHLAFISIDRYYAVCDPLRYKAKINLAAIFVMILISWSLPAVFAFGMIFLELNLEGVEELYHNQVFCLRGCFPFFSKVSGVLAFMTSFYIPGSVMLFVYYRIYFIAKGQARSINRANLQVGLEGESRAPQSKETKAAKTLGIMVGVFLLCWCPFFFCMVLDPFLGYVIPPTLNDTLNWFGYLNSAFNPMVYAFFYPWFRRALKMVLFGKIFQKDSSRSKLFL

Regarding `CCOc1ccc(-n2ncc(C(=O)Nc3ccc([C@H]4CNCCO4)cc3)n2)cc1` [Example 22, (S)-2-(4-Ethoxyphenyl)-N-(4-(morpholin-2-yl)phenyl)-2H-1,2,3-triazole-4-carboxamide hydrochloride], the figures for the inhibitory constant (Ki) in experiment [1] and in experiment [2] were 0.001 µM and 0.0008 µM, respectively.
`Cc1cccc(-n2ncc(C(=O)Nc3ccc([C@H]4CNCCO4)cc3)n2)c1` [Example 23, (S)—N-(4-(Morpholin-2-yl)phenyl)-2-m-tolyl-2H-1,2,3-triazole-4-carboxamide hydrochloride]: the Ki in experiment [1] turned out to be 0.0005 µM; in experiment [2], 0.0011 µM.
For `Cc1cccc(-n2cc(C(=O)Nc3ccc([C@H]4CNCCO4)cc3)nn2)c1` [Example 24, (S)—N-(4-(Morpholin-2-yl)phenyl)-1-m-tolyl-1H-1,2,3-triazole-4-carboxamide hydrochloride], the Ki was found to be 0.0069 µM in experiment [1] and 0.0013 µM in experiment [2].
The like results for `COc1cccc(-n2cc(C(=O)Nc3ccc([C@H]4CNCCO4)cc3)nn2)c1` [Example 25, (S)-1-(3-Methoxyphenyl)-N-(4-(morpholin-2-yl)phenyl)-1H-1,2,3-triazole-4-carboxamide hydrochloride] were, in that order, 0.0092 µM and 0.0014 µM.
As for `CCOc1cccc(-n2cc(C(=O)Nc3ccc([C@H]4CNCCO4)cc3)nn2)c1` [Example 26, (S)-1-(3-Ethoxyphenyl)-N-(4-(morpholin-2-yl)phenyl)-1H-1,2,3-triazole-4-carboxamide hydrochloride], the Ki in experiment [1] was found to be 0.0032 µM; in experiment [2], 0.0011 µM.
In the same order, the values of `O=C(Nc1ccc([C@H]2CNCCO2)cc1)c1cn(-c2cccc(OC(F)(F)F)c2)nn1` [Example 27, (S)—N-(4-(Morpholin-2-yl)phenyl)-1-(3-(trifluoromethoxy)phenyl)-1H-1,2,3-triazole-4-carboxamide hydrochloride] are 0.0154 µM and 0.0068 µM.
The like results for `O=C(Nc1ccc([C@H]2CNCCO2)cc1)c1cnn(-c2cccc(OC(F)(F)F)c2)n1` [Example 28, (S)—N-(4-(Morpholin-2-yl)phenyl)-2-(3-(trifluoromethoxy)phenyl)-2H-1,2,3-triazole-4-carboxamide hydrochloride] were, in that order, 0.0156 µM and 0.0034 µM.
`O=C(Nc1ccc([C@H]2CNCCO2)cc1)c1cn(-c2cccc(OC(F)F)c2)nn1` [Example 29, (S)-1-(3-(Difluoromethoxy)phenyl)-N-(4-(morpholin-2-yl)phenyl)-1H-1,2,3-triazole-4-carboxamide hydrochloride]: the Ki in experiment [1] turned out to be 0.0006 µM; in experiment [2] it was 0.0009 µM.
`COc1cccc(-n2ncc(C(=O)Nc3ccc([C@H]4CNCCO4)cc3)n2)c1` [Example 30, (S)-2-(3-Methoxyphenyl)-N-(4-(morpholin-2-yl)phenyl)-2H-1,2,3-triazole-4-carboxamide hydrochloride]: the Ki in experiment [1] turned out to be 0.0082 µM; in experiment [2], 0.0032 µM.
On to `CCOc1cccc(-n2ncc(C(=O)Nc3ccc([C@H]4CNCCO4)cc3)n2)c1` [Example 31, hydrochloride], for which the inhibitory constant (Ki) in experiment [1] came out at 0.107 µM; in experiment [2] it was 0.013 µM.
As for `O=C(Nc1ccc([C@H]2CNCCO2)cc1)c1ncn(-c2ccc(OC(F)F)cc2)n1` [Example 32, (S)-1-(4-(Difluoromethoxy)phenyl)-N-(4-(morpholin-2-yl)phenyl)-1H-1,2,4-triazole-3-carboxamide hydrochloride], the inhibition constant Ki in experiment [1] is 0.045 µM; in experiment [2], 0.0018 µM.
In the same order, the values of `O=C(Nc1ccc([C@H]2CNCCO2)cc1)c1cn(-c2ccc(Br)cn2)nn1` [Example 36, (S)-1-(5-Bromopyridin-2-yl)-N-(4-(morpholin-2-yl)phenyl)-1H-1,2,3-triazole-4-carboxamide hydrochloride] are 0.03 µM and 0.0046 µM.
On to `CCN(C[C@H]1COC(N)=N1)c1ccccc1` [^3[H]—(S)-4-[(ethyl-phenyl-amino)-methyl]-4,5-dihydro-oxazol-2-ylamine, reference compound], for which the Kd in experiment [1] (rat TAAR1 membranes, saturation curve, read-out: dissociation constant (Kd) of radioligand) is around 2.3 nM; in experiment [2] (mouse TAAR1 membranes, saturation curve, read-out: dissociation constant (Kd) of radioligand), around 0.7 nM.
